Source: US20020051795A1, “ASCORBIC ACID AS AN ADJUVANT IN THE REMOVAL OF VASCULAR OCCLUSIONS” (priority 1997, published 2002)

System: patients at risk for a vascular occlusion
Test: ascorbic acid infusion as adjuvant to thrombolytic treatment (streptokinase or heparin) in patients, compared with patients receiving no ascorbic acid
Assay type: in vivo, humans
Conditions: 20 patients; infusion of 70 ml of a 15% ascorbic acid solution diluted with physiological saline, pH 6.0 to 7.0, over four hours, with streptokinase (1.0×106 units) or heparin 2.5 mg/kg; versus equal number of patients with no ascorbic acid infusion but otherwise the same therapy
Protocol: Treatment of a patient threatened by a vascular occlusion is administered, for example, by first giving the patient streptokinase (1.0×106 units) or heparin in a dose of 2.5 mg/kg […] in the form of an infusion over a period of 30 minutes. At the same time, the patient receives over a period of four hours an infusion of 70 ml of a 15% ascorbic acid solution diluted with physiological saline solution and adjusted to a pH of 6.0 to 7.0. The patient's condition is monitored continuously by an electrocardiogram. A group of 20 patients at risk for a vascular occlusion were treated by the procedure described above and compared with an equal number of patients receiving no ascorbic acid infusion during the operation but otherwise the same therapy.

O=C1O[C@H]([C@@H](O)CO)C(O)=C1O [ascorbic acid]
complications during the operation and during the subsequent two-week observation phase: significantly fewer complications
